Holding throughout (assay type): cell-based, human
Assay [1] concerns stress granules (FUS, eIF3, G3BP1) in HeLa Kyoto, HeLa BAC FUS-GFP and iPS FUS-GFP cells. Kind of assay: Screen for compounds altering FUS, eIF3 and G3BP1 levels in stress granules of arsenate-stressed cells (Example 1). To be noted: compound 1 μM, 5 μM or 25 μM for one hour, then 2 mM Potassium Arsenate 1 hour; confocal fluorescence imaging; FIGS. 1-4. The source says: Stress granules are condensates that form in the cytoplasm of cells under stress. Multiple proteins are known to be concentrated in stress granules, including FUS, eukaryotic initiation factor 3 (eIF3), and G3BP1. FUS is involved in pre-mRNA maturation, and various mutations in FUS have been associated with ALS. Although FUS is found in stress granules, it is not believed to be critical for formation of stress granules. Like FUS, eIF3 is also not believed to be critical for formation of stress granules. As the name indicates, eIF3 is a eukaryotic initiation factor, but it is also involved in translational recycling. By contrast, G3BP1 is believed to initiate formation of stress granules and is potentially critical to maintaining their structure. G3BP1 is an RNA binding protein and an element of the Ras signaling transduction pathway. These three proteins were tracked within cells to determine if compounds could preferentially exclude one of these proteins from stress granules without dissolving the stress granule.
(§1) Three cell lines (HeLa Kyoto, HeLa comprising a bacterial artificial chromosome (BAC) encoding FUS-GFP, and induced pluripotent stem cells (iPS) expressing FUS-GFP) were separately grown in culture. 1200 compounds from a compound library were exposed individually at concentrations of 1 μM, 5 μM, or 25 μM to one of the cell lines for one hour. For some compounds, this procedure was repeated for one or both of the other cell lines. Cells that were not exposed to the compounds (DMSO-only vehicle treatment) were used as controls. The cells were then exposed to arsenate stress for 1 hour to stimulate the formation of stress granules, using a final concentration of 2 mM Potassium Arsenate (Sigma A6631, diluted in PBS).
(§2) After stress treatment, the cells were fixed with a final concentration of 3.7% Formaldehyde (FA) for 15 minutes at room temperature. Subsequently, cells were washed using a plate washer, permeabilized (10 min at RT using 0.1% Triton X/PBS) and blocked (30 min with 0.2% Fish skin gelatin/PBS). For cells expressing FUS-GFP, GFP fluorescence was observed directly. For the other protein markers of interest a combination of anti-FUS (Sigma AMAb90549; 1:500), anti-eIF3 (Santa Cruz sc-137214; 1:500), and anti-G3BP1 (Invitrogen PA5-29455; 1:4000) antibodies and appropriate secondary antibodies (Life Technologies; Alexa 594 and 647) was applied to visualize FUS, eIF3, and G3BP1 protein in the cells.
(§3) A spinning disk confocal microscope was used to acquire images of the samples using confocal fluorescence at 405/488/561/640 nm. 40× air objective lenses were used to capture the images. The gain was set to 1.4 and binning to 1. The exposure times were adjusted to the fluorescence emission intensity specific for each label. Exposure times ranged from 100-300 ms. Appropriate filter settings were used, matching the excitation and emission spectra of the label. Image acquisition was automated, and the resulting data were analyzed using KNIME (Berthold et al., 2008, Data Analysis, Machine Learning and Applications. Studies in Classification, Data Analysis, and Knowledge Organization. Springer, Berlin, Heidelberg) and CellProfiler (Carpenter et al., 2006, Genome Biol 7:R100). Twenty-five imaging parameters were extracted for each image, including marker signal droplet count, area, shape, etc. For each imaging parameter, the Z′ factor for the entire plate was calculated according to the following formula: Z′=1−[3*(SD(pos)+SD(neg))/(Avg(pos)−Avg(neg))] where SD(pos) is the standard deviation of the positive control, SD(neg) is the standard deviation of the negative control, Avg(pos) is the average of the positive control and Avg(neg) is the average of the negative control.
In addition, z-scores were calculated for every test compound using the formula: z=(x−x)/S where x is the mean of the sample, and S is the standard deviation of the sample. […] Results

Assay [2] shares this test system. Kind of assay: Screen for macromolecule and tissue specificity on stress granules of arsenate-stressed cells (Example 2). To be noted: compound 1 μM, 5 μM or 25 μM for one hour, then 2 mM Potassium Arsenate 1 hour; confocal fluorescence imaging; FIGS. 5-10. The method, then: as §1, with “In brief, three” for “Three”, “lines. […]” for “lines.”
as §2
as §3, with “40× (primary screen) and 20× (potency testing)” for “40×”, “Heidelberg),” for “Heidelberg) and”, “7:R100); or, for potency testing, data were analyzed using Harmony (PerkinElmer, Waltham MA) and Vault (Collaborative Drug Discovery, Burlingame CA).” for “7:R100).”
In addition, z-scores were calculated for every test compound using the formula: z=(x−x)/S where x is the mean of the sample, and S is the standard deviation of the sample.

Assay [3] has as its system stress granules of stressed HeLa cells carrying BAC FUS-GFP. Description: Dose-response / potency testing for FUS, eIF3 and G3BP1 in stress granules (FIG. 11). The settings on record: 0.0021-30 μM, number of cytoplasmic drops per cell, four parameter logistic fit. From the text: FIG. 11 is a plot of dose-response curves for FUS, eIF3, and G3BP1 in stress granules of stressed HeLa cells carrying BAC FUS-GFP treated with YM155.
The methods used in this example were similar to those discussed in Example 1. In brief, three cell lines (HeLa Kyoto, HeLa comprising a bacterial artificial chromosome (BAC) encoding FUS-GFP, and induced pluripotent stem cells (iPS) expressing FUS-GFP) were separately grown in culture. 1200 compounds from a compound library were exposed individually at concentrations of 1 μM, 5 μM, or 25 μM to one of the cell lines for one hour. For some compounds, this procedure was repeated for one or both of the other cell lines. […]
A spinning disk confocal microscope was used to acquire images of the samples using confocal fluorescence at 405/488/561/640 nm. […] The exposure times were adjusted to the fluorescence emission intensity specific for each label. […] Image acquisition was automated, and the resulting data were analyzed using KNIME (Berthold et al., 2008, Data Analysis, Machine Learning and Applications. Studies in Classification, Data Analysis, and Knowledge Organization. Springer, Berlin, Heidelberg), CellProfiler (Carpenter et al., 2006, Genome Biol 7:R100); or, for potency testing, data were analyzed using Harmony (PerkinElmer, Waltham MA) and Vault (Collaborative Drug Discovery, Burlingame CA). […]

Here are results for 16 compounds from patent publication US12422437B2, “Methods of screening for condensate-associated specificity and uses thereof” (Dewpoint Therapeutics, Inc., priority 2019, dated 2025).

Consider `COc1cc(N2CCC(N)CC2)ccc1Nc1ncc(Cl)c(-c2c[nH]c3ccccc23)n1` [AZD3463], for which the “Selective and Non-Selective Condensate Disrupters (selectivity of exclusion of FUS, eIF3, G3BP1 from stress granules)” value in assay [1] was “FUS-selective”. Turning to `COc1cc(CCc2cc(NC(=O)c3ccc(N4C[C@@H](C)N[C@@H](C)C4)cc3)n[nH]2)cc(OC)c1` [AZD4547], the “Selective and Non-Selective Condensate Disrupters (selectivity of exclusion of FUS, eIF3, G3BP1 from stress granules)” value in assay [1] is “Non-selective”. Still for that read-out and setting: to `CNC(=O)CN1CCC(Oc2cc3c(Nc4cccc(Cl)c4F)ncnc3cc2OC)CC1` [AZD8931] belongs “eIF3-selective”. For the compound `CC1(C)CCC2=C(O1)c1ccccc1C(=O)C2=O` [Beta-Lapachone], the “Selective and Non-Selective Condensate Disrupters (selectivity of exclusion of FUS, eIF3, G3BP1 from stress granules)” value in assay [1] is on record as “eIF3-selective”. Further, in assay [2], the “Selectivity (Selective and Non-Selective Condensate Disrupters)” value is “eIF3-selective”. For the compound `Cn1cc(C2=C(c3cn(CCCSC(=N)N)c4ccccc34)C(=O)NC2=O)c2ccccc21` [Bisindolylmaleimide IX], in assay [2], the “Selectivity (Selective and Non-Selective Condensate Disrupters)” value was “eIF3-selective”. Take `C[C@H]1CCC/C=C/[C@@H]2C[C@H](O)C[C@H]2[C@H](O)/C=C/C(=O)O1` [Brefeldin A]: the “Selective and Non-Selective Condensate Disrupters (selectivity of exclusion of FUS, eIF3, G3BP1 from stress granules)” value in assay [1] is “FUS-selective”.

For the compound `COc1cc2c(Oc3ccc4[nH]c(C)cc4c3F)ncnc2cc1OCCCN1CCCC1` [Cediranib], the “Selectivity (Selective and Non-Selective Condensate Disrupters)” value in assay [2] is “eIF3 and FUS- selective”.

As for `Cc1cc2cc3ccc(N(C)C)cc3nc2cc1N` [Coriphosphine O], in assay [2], the “Selectivity (Selective and Non-Selective Condensate Disrupters)” value is recorded as “FUS-selective”. As to `O=C(O)CCc1ccc(NCc2cccc(Oc3ccccc3)c2)cc1` [GW9508], in assay [1], the “Selective and Non-Selective Condensate Disrupters (selectivity of exclusion of FUS, eIF3, G3BP1 from stress granules)” value is listed as “FUS-selective”. On the same count and under the same terms, the value for `O=C(c1ccc(F)cc1)C1CCN(CCn2c(=O)[nH]c3ccccc3c2=O)CC1` [Ketanserin] was “FUS-selective”. Regarding `NC(=O)CCCCC1CCSS1` (stereo not drawn) [Lipoamide], in assay [1], the “Selective and Non-Selective Condensate Disrupters (selectivity of exclusion of FUS, eIF3, G3BP1 from stress granules)” value is recorded as “Non-selective”. Moreover, in assay [2], the “Selectivity (Selective and Non-Selective Condensate Disrupters)” value is given as “Non-selective”. As to `Cc1ccc(NC(=O)c2ccc(CN3CCN(C)CC3)cc2)cc1Nc1nc(-c2cccnc2)cs1` [Masitinib], in assay [2], the “Selectivity (Selective and Non-Selective Condensate Disrupters)” value is “FUS protein and iPSC cell selective”.

With `COc1ncc(-c2ccc3nccc(-c4ccnnc4)c3c2)cc1NS(=O)(=O)c1ccc(F)cc1F` [Omipalisib], in assay [1], the “Selective and Non-Selective Condensate Disrupters (selectivity of exclusion of FUS, eIF3, G3BP1 from stress granules)” value was “Non-selective”.

Regarding `COc1ccc(-c2cc3c(C)nc(N)nc3n(C3CCC(OCCO)CC3)c2=O)cn1` (stereo not drawn) [PF-04691502], the “Selectivity (Selective and Non-Selective Condensate Disrupters)” value in assay [2] is on record as “Non-selective”. Turning to `Cc1cnc(Nc2ccc(N3CCN(C)CC3)cc2)nc1Nc1cccc(S(=O)(=O)NC(C)(C)C)c1` [TG101209], the “Selective and Non-Selective Condensate Disrupters (selectivity of exclusion of FUS, eIF3, G3BP1 from stress granules)” value in assay [1] is “Non-selective”. Besides, in assay [2], the “Selectivity (Selective and Non-Selective Condensate Disrupters)” value is “Non-selective”.

As to `COCCn1c2c([n+](Cc3cnccn3)c1C)C(=O)c1ccccc1C2=O.[Br-]` [YM155 (Sepantronium Bromide), Sepantronium Bromide], the “potency (similar to IC50) for exclusion of a specific protein from stress granules relative to others” value in assay [3] was “exclusion of eIF3 at lower concentration of compound relative to FUS and G3BP1”. Also, the “Selective and Non-Selective Condensate Disrupters (selectivity of exclusion of FUS, eIF3, G3BP1 from stress granules)” value in assay [1] is listed as “eIF3-selective”. Also, the “Selectivity (Selective and Non-Selective Condensate Disrupters)” value in assay [2] is given as “eIF3-selective”.
